From ChEMBL document CHEMBL1909046, “DrugMatrix in vitro pharmacology data” come the findings set out here.

The structures appear in SMILES notation.

For one assay, the target named is T1, Glucocorticoid receptor (Homo sapiens, UniProt P04150). Note: in other assays of this panel Not Active means under 50% inhibition at 10 µM.
T1 sequence (P04150 whole entry): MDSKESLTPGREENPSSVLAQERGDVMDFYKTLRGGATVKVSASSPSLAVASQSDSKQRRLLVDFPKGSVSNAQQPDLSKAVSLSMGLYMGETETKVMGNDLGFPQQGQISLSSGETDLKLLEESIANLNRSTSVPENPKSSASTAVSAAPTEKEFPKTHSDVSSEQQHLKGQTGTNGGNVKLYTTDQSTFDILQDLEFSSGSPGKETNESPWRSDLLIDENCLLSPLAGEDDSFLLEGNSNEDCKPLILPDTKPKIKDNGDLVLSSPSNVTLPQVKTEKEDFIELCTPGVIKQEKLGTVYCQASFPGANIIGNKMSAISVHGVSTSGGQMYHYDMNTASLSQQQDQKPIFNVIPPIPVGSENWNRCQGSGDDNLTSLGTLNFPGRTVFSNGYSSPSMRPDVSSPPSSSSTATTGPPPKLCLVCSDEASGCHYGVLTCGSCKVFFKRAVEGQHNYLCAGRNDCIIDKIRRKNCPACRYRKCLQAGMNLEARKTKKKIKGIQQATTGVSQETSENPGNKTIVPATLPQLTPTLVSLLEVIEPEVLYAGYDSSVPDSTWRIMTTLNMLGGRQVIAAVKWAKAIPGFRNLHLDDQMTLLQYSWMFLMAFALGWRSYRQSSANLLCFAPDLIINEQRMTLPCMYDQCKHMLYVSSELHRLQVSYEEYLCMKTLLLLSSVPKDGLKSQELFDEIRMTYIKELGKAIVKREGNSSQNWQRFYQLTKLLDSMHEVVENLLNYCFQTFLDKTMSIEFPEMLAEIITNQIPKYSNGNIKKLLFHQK
The following applies: hela s3.

In assay [1] the target is C-C chemokine receptor type 2 (Homo sapiens, UniProt P41597). Type of assay: cell membranes, Membrane. As to conditions: cho-k1. Note: in other assays of this panel Not Active means under 50% inhibition at 10 µM.
Sequence of C-C chemokine receptor type 2 (P41597 whole entry): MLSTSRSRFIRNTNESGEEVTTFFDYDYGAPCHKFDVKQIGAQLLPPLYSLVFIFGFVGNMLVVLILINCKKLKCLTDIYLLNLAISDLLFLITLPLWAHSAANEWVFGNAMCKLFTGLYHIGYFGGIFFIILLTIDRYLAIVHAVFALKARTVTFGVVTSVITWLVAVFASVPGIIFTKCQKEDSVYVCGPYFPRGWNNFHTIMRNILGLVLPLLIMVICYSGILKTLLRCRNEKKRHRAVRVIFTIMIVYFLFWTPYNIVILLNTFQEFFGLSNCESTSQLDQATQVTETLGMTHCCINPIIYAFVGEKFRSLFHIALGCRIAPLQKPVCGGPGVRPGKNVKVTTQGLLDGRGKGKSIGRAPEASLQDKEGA
The target of assay [2] is T2, C-X-C chemokine receptor type 1 (Homo sapiens, UniProt P25024). Note: in other assays of this panel Not Active means under 50% inhibition at 10 µM.
T2 sequence (P25024 whole entry): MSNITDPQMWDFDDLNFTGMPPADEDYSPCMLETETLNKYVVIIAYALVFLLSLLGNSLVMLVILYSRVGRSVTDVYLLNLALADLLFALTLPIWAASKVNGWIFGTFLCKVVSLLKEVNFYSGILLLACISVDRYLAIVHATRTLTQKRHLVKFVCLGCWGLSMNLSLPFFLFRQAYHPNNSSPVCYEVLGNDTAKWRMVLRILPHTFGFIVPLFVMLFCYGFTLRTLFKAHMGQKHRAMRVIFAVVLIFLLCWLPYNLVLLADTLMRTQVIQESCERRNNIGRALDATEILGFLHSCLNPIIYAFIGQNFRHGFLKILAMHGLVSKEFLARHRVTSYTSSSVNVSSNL

Assay [3] has as its target T3, Type-2 angiotensin II receptor (Homo sapiens, UniProt P50052). Note: in other assays of this panel Not Active means under 50% inhibition at 10 µM.
T3 sequence (P50052 whole entry): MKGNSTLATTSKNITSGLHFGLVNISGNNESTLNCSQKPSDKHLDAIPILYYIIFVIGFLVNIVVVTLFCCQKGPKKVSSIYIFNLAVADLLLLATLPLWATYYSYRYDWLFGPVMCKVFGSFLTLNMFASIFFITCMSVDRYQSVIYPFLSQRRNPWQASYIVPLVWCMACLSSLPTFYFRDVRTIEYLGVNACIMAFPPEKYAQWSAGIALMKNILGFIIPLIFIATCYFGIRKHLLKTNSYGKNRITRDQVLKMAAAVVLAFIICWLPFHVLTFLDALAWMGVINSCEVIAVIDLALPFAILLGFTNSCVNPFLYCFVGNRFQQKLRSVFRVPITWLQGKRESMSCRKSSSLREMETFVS
Description: biochemical. The format is cell-based, CHO-K1. The following applies: cho-k1.

Assay [4] is described as follows: DRUGMATRIX: Leukotriene, BLT (LTB4) radioligand binding (ligand: [3H]LTB4). Type of assay: cell membranes, Membrane. As to conditions: u-937; Not Active = under 50% inhibition at 10 µM.
In assay [5] the target is T4, Amine oxidase [flavin-containing] A (Homo sapiens, UniProt P21397).
T4 sequence (P21397 whole entry): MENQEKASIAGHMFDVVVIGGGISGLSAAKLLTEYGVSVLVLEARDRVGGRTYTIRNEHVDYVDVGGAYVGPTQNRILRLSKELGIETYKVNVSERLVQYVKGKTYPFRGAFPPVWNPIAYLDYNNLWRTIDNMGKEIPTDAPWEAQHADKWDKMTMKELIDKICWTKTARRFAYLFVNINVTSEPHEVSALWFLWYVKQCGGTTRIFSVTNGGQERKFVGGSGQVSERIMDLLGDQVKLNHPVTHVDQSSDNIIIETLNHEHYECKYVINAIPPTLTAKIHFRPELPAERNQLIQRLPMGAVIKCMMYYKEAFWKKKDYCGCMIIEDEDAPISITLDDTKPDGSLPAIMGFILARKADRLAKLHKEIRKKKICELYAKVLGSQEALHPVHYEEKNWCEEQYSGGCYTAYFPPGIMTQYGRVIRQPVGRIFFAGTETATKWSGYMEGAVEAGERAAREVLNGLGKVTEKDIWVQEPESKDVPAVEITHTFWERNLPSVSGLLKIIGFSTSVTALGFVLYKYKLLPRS
Description: DRUGMATRIX: Monoamine Oxidase MAO-A enzyme inhibition (substrate: Kynuramine). Details: species or system BTI-TN-5B1-4. As to conditions: Not Active = under 50% inhibition at 10 µM.

The target in assay [6] is T5, Cysteinyl leukotriene receptor 1 (Homo sapiens, UniProt Q9Y271). Note: in other assays of this panel Not Active means under 50% inhibition at 10 µM.
T5 sequence (Q9Y271 whole entry): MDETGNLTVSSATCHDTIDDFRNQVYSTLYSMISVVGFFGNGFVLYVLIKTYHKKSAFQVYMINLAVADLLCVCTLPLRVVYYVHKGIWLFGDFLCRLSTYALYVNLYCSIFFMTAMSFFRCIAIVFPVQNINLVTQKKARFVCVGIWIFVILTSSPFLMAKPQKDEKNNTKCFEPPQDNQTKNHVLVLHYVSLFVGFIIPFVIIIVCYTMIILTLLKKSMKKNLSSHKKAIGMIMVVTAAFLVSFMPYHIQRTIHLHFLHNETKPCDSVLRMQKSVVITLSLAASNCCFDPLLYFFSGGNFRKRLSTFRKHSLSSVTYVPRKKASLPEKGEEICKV
Type of assay: cell membranes, Membrane. The following applies: cho-k1.

A further assay has as its target Insulin receptor (Rattus norvegicus, UniProt P15127). The format is cell membranes, Wistar, Liver, Membrane. Note: in other assays of this panel Not Active means under 50% inhibition at 10 µM.

Sequence of Insulin receptor (P15127 27-759 limits assumed): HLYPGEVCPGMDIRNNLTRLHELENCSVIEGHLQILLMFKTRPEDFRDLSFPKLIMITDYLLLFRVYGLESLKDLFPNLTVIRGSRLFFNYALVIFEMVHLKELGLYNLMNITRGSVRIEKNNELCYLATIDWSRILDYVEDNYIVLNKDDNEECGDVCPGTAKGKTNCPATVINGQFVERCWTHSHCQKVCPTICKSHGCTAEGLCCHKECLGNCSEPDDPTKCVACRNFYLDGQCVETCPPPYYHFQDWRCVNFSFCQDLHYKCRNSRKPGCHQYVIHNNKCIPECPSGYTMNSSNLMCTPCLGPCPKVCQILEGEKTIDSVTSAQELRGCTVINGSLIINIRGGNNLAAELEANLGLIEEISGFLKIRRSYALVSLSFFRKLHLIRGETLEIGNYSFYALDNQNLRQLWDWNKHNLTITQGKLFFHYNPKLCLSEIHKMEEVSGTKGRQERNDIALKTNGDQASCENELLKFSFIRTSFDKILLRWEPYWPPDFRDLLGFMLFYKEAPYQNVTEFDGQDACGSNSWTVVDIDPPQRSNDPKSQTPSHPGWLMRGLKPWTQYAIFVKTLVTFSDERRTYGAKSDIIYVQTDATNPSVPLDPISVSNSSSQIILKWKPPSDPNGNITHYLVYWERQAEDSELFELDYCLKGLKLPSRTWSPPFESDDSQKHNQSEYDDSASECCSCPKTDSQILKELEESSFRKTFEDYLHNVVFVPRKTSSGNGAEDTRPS
Sequence of Insulin receptor (P15127 764-1383 limits assumed): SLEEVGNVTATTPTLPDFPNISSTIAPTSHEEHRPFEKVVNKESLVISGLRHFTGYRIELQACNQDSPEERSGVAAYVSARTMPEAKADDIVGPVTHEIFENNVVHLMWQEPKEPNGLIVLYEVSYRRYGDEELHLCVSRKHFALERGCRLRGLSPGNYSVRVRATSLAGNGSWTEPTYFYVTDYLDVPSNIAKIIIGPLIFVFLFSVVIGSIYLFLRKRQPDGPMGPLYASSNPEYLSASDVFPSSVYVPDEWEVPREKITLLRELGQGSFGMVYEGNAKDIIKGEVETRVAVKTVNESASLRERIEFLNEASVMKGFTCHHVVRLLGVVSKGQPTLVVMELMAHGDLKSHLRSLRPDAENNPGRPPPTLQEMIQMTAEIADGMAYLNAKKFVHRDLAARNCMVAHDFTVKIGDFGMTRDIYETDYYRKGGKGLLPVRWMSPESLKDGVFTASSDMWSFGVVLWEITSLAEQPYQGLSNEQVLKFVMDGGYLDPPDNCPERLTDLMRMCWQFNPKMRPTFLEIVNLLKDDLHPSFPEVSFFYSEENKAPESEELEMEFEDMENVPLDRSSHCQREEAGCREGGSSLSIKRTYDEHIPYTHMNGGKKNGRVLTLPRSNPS

Consider `CCOc1nc2cccc(C(=O)O)c2n1Cc1ccc(-c2ccccc2-c2nnn[nH]2)cc1`, for which the 50% inhibitory concentration (IC50) entry (on Glucocorticoid receptor; in assay [1]; in assay [2]; in assay [3]; in assay [4]; in assay [5] (bti-tn-5b1-4)) was “Not Active” throughout. The IC50 result (in assay [6]; against Insulin receptor) was “Not Active” in each case. For the same molecule, the Ki entry in assay [4] is listed as “Not Active”.

Regarding `O=C(O)CCCc1cccs1`, the IC50 result (at Glucocorticoid receptor; in assay [1]; in assay [2]; in assay [3]; in assay [4]; in assay [5] (bti-tn-5b1-4)) was “Not Active” each time. Moreover, the half-maximal inhibitory concentration (IC50) result (in assay [6]; on Insulin receptor) was “Not Active” each time. The Ki entry in assay [4] is “Not Active”.

`O=C(c1ccccc1F)N1CCC(Cc2ccccc2)CC1`: the IC50 result (at Glucocorticoid receptor; in assay [1]; in assay [2]; in assay [3]; in assay [4]; in assay [5] (bti-tn-5b1-4)) was “Not Active” in each case. The IC50 result (in assay [6]; at Insulin receptor) was “Not Active” in each case. Also, in assay [4], the Ki result was “Not Active”.

With `CC(O)COC[C@H]1O[C@@H]2O[C@H]3[C@H](O)[C@@H](O)[C@@H](O[C@H]4[C@H](O)[C@@H](O)[C@@H](O[C@H]5[C@H](O)[C@@H](O)[C@@H](O[C@H]6[C@H](O)[C@@H](O)[C@@H](O[C@H]7[C@H](O)[C@@H](O)[C@@H](O[C@H]8[C@H](O)[C@@H](O)[C@@H](O[C@H]1[C@H](O)[C@H]2O)O[C@@H]8COCC(C)O)O[C@@H]7COCC(C)O)O[C@@H]6COCC(C)O)O[C@@H]5COCC(C)O)O[C@@H]4COCC(C)O)O[C@@H]3COCC(C)O` (stereo partly drawn) [2-HYDROXYPROPYL-BETA-CYCLODEXTRIN], the IC50 entry is “Not Active” on Glucocorticoid receptor; “Not Active” in assay [1]; “Not Active” in assay [2]; “Not Active” in assay [3]; “Not Active” in assay [4]; 167 nM in assay [5] (read-out: IC50). Moreover, the IC50 result (in assay [6]; on Insulin receptor) was “Not Active” throughout. Moreover, in assay [4], the Ki result is “Not Active”.

For the molecule `NC(=O)c1cccc(N)c1` [3-AMINOBENZAMIDE], the concentration for half-maximal inhibition (IC50) entry (against Glucocorticoid receptor; in assay [1]; in assay [2]; in assay [3]; in assay [4]; in assay [5] (bti-tn-5b1-4)) was “Not Active” each time. In addition, the concentration for half-maximal inhibition (IC50) entry (in assay [6]; at Insulin receptor) was “Not Active” throughout. Also, the Ki result in assay [4] was “Not Active”.

For the molecule `C[C@H]1O[C@H](O[C@H]2[C@H](O)[C@@H](O)[C@@H](O[C@H]3[C@H](O)[C@@H](O)C(O)O[C@@H]3CO)O[C@@H]2CO)[C@H](O)[C@@H](O)[C@@H]1N[C@H]1C=C(CO)[C@@H](O)[C@H](O)[C@H]1O` (some centres undefined) [ACARBOSE], the half-inhibitory concentration (IC50) entry (against Glucocorticoid receptor; in assay [1]; in assay [2]; in assay [3]; in assay [4]; in assay [5] (bti-tn-5b1-4)) was “Not Active” in each case. The IC50 result (in assay [6]; on Insulin receptor) was “Not Active” in each case. For the same molecule, the Ki result in assay [4] is “Not Active”.

As to `CC[C@H]1[C@@H]2C[C@H]3[C@@H]4N(C)c5ccccc5[C@]45C[C@@H]([C@@H]2[C@H]5O)N3[C@@H]1O` [AJMALINE], the IC50 entry (against Glucocorticoid receptor; in assay [1]; in assay [2]; in assay [3]; in assay [4]; in assay [5] (bti-tn-5b1-4)) was “Not Active” each time. Besides, the half-inhibitory concentration (IC50) entry (in assay [6]; against Insulin receptor) was “Not Active” throughout. In assay [4], the Ki entry is on record as “Not Active”.

Regarding `NC12CC3CC(CC(C3)C1)C2` [AMANTADINE], the IC50 entry (against Glucocorticoid receptor; in assay [1]; in assay [2]; in assay [3]; in assay [4]; in assay [5] (bti-tn-5b1-4)) was “Not Active” in each case. Moreover, the IC50 result (in assay [6]; against Insulin receptor) was “Not Active” each time. Besides, the Ki result in assay [4] was “Not Active”.

For the molecule `NCCCNCCSP(=O)(O)O` [AMIFOSTINE], the IC50 entry (against Glucocorticoid receptor; in assay [1]; in assay [2]; in assay [3]; in assay [4]; in assay [5] (bti-tn-5b1-4)) was “Not Active” in each case. In addition, the IC50 entry (in assay [6]; at Insulin receptor) was “Not Active” throughout. For the same molecule, the Ki result in assay [4] is recorded as “Not Active”.

With `CN(C)CCC=C1c2ccccc2CCc2ccccc21` [AMITRIPTYLINE], the concentration for half-maximal inhibition (IC50) entry (at Glucocorticoid receptor; in assay [1]; in assay [2]; in assay [3]; in assay [4]; in assay [5] (bti-tn-5b1-4)) was “Not Active” in each case. Further, the concentration for half-maximal inhibition (IC50) entry (in assay [6]; at Insulin receptor) was “Not Active” in each case. In assay [4], the Ki result is given as “Not Active”.

For the molecule `O=c1c(-c2ccc(O)cc2)coc2cc(O)cc(O)c12` [GENISTEIN], the IC50 result (against Glucocorticoid receptor; in assay [1]; in assay [2]; in assay [3]; in assay [4]; in assay [6]) was “Not Active” throughout. Moreover, the half-maximal inhibitory concentration (IC50) entry against Insulin receptor was “Not Active”. The Ki entry in assay [4] is recorded as “Not Active”.

In the case of `NNCCc1ccccc1` [PHENELZINE], the IC50 result (against Glucocorticoid receptor; in assay [1]; in assay [2]; in assay [3]; in assay [4]; in assay [6]) was “Not Active” in each case. Moreover, the IC50 entry at Insulin receptor is given as “Not Active”. Besides, in assay [4], the Ki entry is “Not Active”.

In the case of `CCN(C(C)=O)c1cccc(-c2ccnc3c(C#N)cnn23)c1` [ZALEPLON], the half-inhibitory concentration (IC50) entry in assay [1], in assay [2], in assay [3], in assay [4], in assay [5] (bti-tn-5b1-4) and in assay [6] was “Not Active” throughout. The IC50 entry on Insulin receptor is recorded as “Not Active”. Besides, in assay [4], the Ki result is “Not Active”.
